What was measured:
[1] = Pharmacokinetic study of co-crystal capsules in the dog model; assay type: in vivo; settings: for Systemic absorption in the dog model: at relevant doses (5 mg capsule); for AUC0-24h, Mean / Cmax, Mean / Tmax: capsule, 5 mg/dog, pentagastrin pre-treated fasted male dogs, crossover in 4 dogs
Method: The co-crystals were tested using the following formulations: • 1. Succinic Acid co-crystal capsule (5 mg dose)—Pentagastrin pre-treated, fasted dogs • 2. Citric Acid co-crystal capsule (5 mg dose)—Pentagastrin pre-treated, fasted dogs
The Study Design is as follows:
Crossover in 4 fasted male dogs (˜10 kg); dose 5 mg/dog; flush with 50 mL water; 2-week washout between treatments; 8 blood sample points per treatments.

[2] = Microdissolution of co-crystals versus free form in FaSSIF (pION Microdissolution Profiler); assay type: physicochemical; settings: for AUC (extent of dissolution), Mean / Dissolution Rate, Mean: FaSSIF pH 6.5, 15 mL at 37° C., 150 rpm, API powder 0.2 mg/mL, N = 4; for AUC (extent of dissolution), Mean: 180 min, trapezoidal rule
Method: The dissolution of the N-1 form of the citric acid and the succinic acid co-crystals of the compound of formula (I) were tested against that of the free form of the compound of formula (I). The dissolution properties, rate and extent, and peak solubility were tested in FaSSIF (fasted state simulated intestinal fluid).
This experiment was performed on a pION Microdissolution Profiler™ an API sparing, low volume dissolution instrument with UV fiber optics (UVFO) probes to measure real-time dissolution profile in biorelevant media. The experimental was run under the following conditions: • Apparatus: plon Microdissolution profiler • Media: FaSSIF, pH 6.5 • Volume: 15 mL at 37° C. • Stirring: 150 rpm with small stirrer bar • Dose: API powder at 0.2 mg/mL or 3 mg/vial • Study duration: 180 min
Time points: several time points to capture initial dissolution rate and through 180 min (typical time for absorption)
The results were analyzed using UVFO Analysis: Standard curve range 0-3 μg/mL; 10 mm path length probe windows; detection wavelength 315 nm; slope ˜17 μg/mL/AU; R2=0.99.

| Compound | Systemic absorption in the dog model [1] | AUC0-24h, Mean [1] | Cmax, Mean [1] | Tmax [1] | Dissolution in FaSSIF compared with the free form [2] | AUC (extent of dissolution), Mean [2] | Dissolution Rate, Mean [2] |
| --- | --- | --- | --- | --- | --- | --- | --- |
| 4-(4-(((6-Methoxy-2-(2-methoxyimidazo[2,1-b][1,3,4]thiadiazol-6-yl)benzofuran-4-yl)oxy)methyl)thiazol-2-yl)-N,N-dimethylbenzamide: citric acid co-crystal (1:1), form N-1 [Example 2] | measurable systemic absorption | 161.61 ng·h/mL | 29.28 ng/mL | 2.0 h | better than the free form | 988.900 µg·min/mL | 0.584 µg/mL/min |
| 4-(4-(((6-Methoxy-2-(2-methoxyimidazo[2,1-b][1,3,4]thiadiazol-6-yl)benzofuran-4-yl)oxy)methyl)thiazol-2-yl)-N,N-dimethylbenzamide: succinic acid co-crystal (1:0.5) [Example 1] | measurable systemic absorption | 93.97 ng·h/mL | 12.22 ng/mL | 1.5 h | better than the free form | 272.622 µg·min/mL | 0.144 µg/mL/min |
| COc1cc(OCc2csc(-c3ccc(C(=O)N(C)C)cc3)n2)c2cc(-c3cn4nc(OC)sc4n3)oc2c1 [Free form, 4-(4-(((6-Methoxy-2-(2-methoxyimidazo[2,1-b][1,3,4]thiadiazol-6-yl)benzofuran-4-yl)oxy)methyl)thiazol-2-yl)-N,N-dimethylbenzamide] | – | – | – | – | – | 0 µg·min/mL | 0 µg/mL/min |
